In patent publication US20100168112A1, “2-Substituted and 4-substituted aryl nitrone compounds” (RENOVIS, INC., priority 2004, published 2010):
Structures can show the parent of a compound that is named as a salt. Values belong to the compound of their own block, whether it stands above or below them.

Tests used:
[1] = DPPH free radical-scavenging/antioxidant assay; type: biochemical; settings: 50 μM DPPH in 80% methanol; 24 h time point; read-out: EC50 (concentration at which a compound reduces by 50% the peak absorbance of DPPH at 520 nm)
Description: Nitrone compounds of the present invention were tested for their free-radical scavenging/antioxidant activity in an in vitro assay that is accepted by those skilled in the art as a model for conditions involving the generation of free radicals. The assay is based on a reaction between a free-radical donor, 2,2-diphenyl-1-picrylhydrazyl (DPPH), and a radical scavenger/antioxidant to be tested for free-radical scavenging activity. Upon donation of the free-radical electron to the purported radical scavenger, the peak visible absorbance of DPPH (515-520 nm) decreases so that optical density readings at this part of the visual spectrum reflect the progression of the following reaction:
where AH is a hypothetical radical scavenger/antioxidant. The assay is based on a protocol originally detailed in Brand-Williams, W. et al., 1995, Use of a Free Radical Method to Evaluate Antioxidant Activity, Lebensm. Wiss. Technol., 28:25-30, with further modifications described in L. R. Fukumoto and G. Mazza, 2000, Assessing Antioxidant and Prooxidant Activities of Phenolic Compounds, J. Agric. Food Chem., 48:3597-3604.
The antioxidant assay was performed using Perkin-Elmer 96-well, clear-bottom, black-wall plates (ordered from E & K Scientific Products) and a Tecan Safire absorbance plate reader. The positive controls were Trolox (6-hydroxy-2,5,7,8-tetramethylchromane-2-carboxylic acid, Sigma-Aldrich), BHA (2(3)-tert-butylhydroquinone monomethyl ether, Sigma-Aldrich), PBN (C-(phenyl)-N-(tert-butyl)nitrone, Sigma-Aldrich) and S-PBN (C-(2-sulfophenyl)-N-(tert-butyl)nitrone, sodium salt, prepared according to E. G. Janzen and R. V. Shetty, 1979, Tetrahedron Lett., 35: 3229-32), and the negative control (i.e., vehicle) was DMSO. In brief, 2 μL of 100× DMSO stock of the desired final concentration of each control or nitrone compound to be tested in the same batch was added to a separate well. To each well was then added 198 μL of a freshly made 50 μM DPPH (Sigma-Aldrich) solution in 80% methanol using a multi-channel pipette. The absorbance was immediately read on the plate reader at 520 nm and thereafter read periodically to assess kinetics until all reactions reached completion (i.e., steady state). Since the steady-state point was 24 h, the assay results are shown from the 24 h time point. The absorbance at 520 nm (OD) was plotted versus the concentrations of the controls and nitrone compounds to assess dose-response and interpolate the EC50 values of the controls and test compounds.

[2] = Pharmacokinetic evaluation following intravenous and oral administration in rats; type: in vivo; settings: male, Sprague-Dawley; for Cmax / Tmax / bioavailability: 5 mg/kg; for Cmax: rat plasma; for Cmax / Tmax: oral gavage, 2 mg/mL at 2.5 mL/kg; for clearance / Vd / Tmax / bioavailability / half-life: plasma, rat; for clearance / Vd / half-life: 1 mg/kg; for clearance / Vd: intravenous administration, 1 mg/mL at 1.0 mL/kg; for clearance: read-out: CI (clearance) (converted); for Vd: read-out: Vd (volume of distribution); for bioavailability: po 2 mg/mL at 2.5 mL/kg vs iv 1 mg/mL at 1.0 mL/kg, dose-normalized, read-out: F (%) oral bioavailability; for half-life: intravenous, read-out: T1/2 elimination half life (converted)
Description: Male Sprague-Dawley rats were given at least 24 hours acclimation before experiment initiation. During acclimation period, all animals received food and water ad libitum. However, food (not water) was removed from the animal's cages up to 12 hours before initiation of the experiment. During the first 4 hours of experimentation, the animals received only water ad libitum. Two to three animals for iv and three animals for oral administration were tested. For iv formulation nitrone compounds of this invention were dissolved (1 mg/mL) in a mixture of 5% dimethyl acetamide (v/v), 0 to 4% Tween 80 (v/v), 10 to 40% PEG 400 (v/v) and the rest percentage of water (v/v). For oral formulation nitrone compounds of this invention were dissolved (2 mg/mL) in a mixture of 4% of 10% Tween in water and 96% of 0.5% carboxymethyl cellulose (medium viscosity) in water; or 4% of 10% Tween in water, 48% of 0.5% carboxymethyl cellulose (medium viscosity) in water, and 48% of 0.5% Hydroxypropyl Methylcellulose/0.2% Sodium Lauryl Sulfate in water. These formulations were stored at 5° C. until the experiment. Formulations were then stir-mixed at least half an hour before dosing. Exactly 200 μL of each left-over formulation was diluted with CH3CN/H2O for concentration analysis. The animals were weighed before dosing. The body weight was used to calculate the true dose for each animal:
IV dosing: • Dose volume (mL)=1.0 mL/kg The intravenous dose was administered through the jugular vein catheter or tail vein in less than 1 minute.
PO dosing: • Dose volume (mL)=2.5 mL/kg The oral dose was administered by oral gavage.
For IV dosing, blood samples were collected (using a pre-heparinized syringe) via the carotid artery or jugular vein catheter at t=2, 5, 15, 30, 60, 120, 180, 360, and 480 minutes post dosing. For PO dosing, blood samples were collected (using a pre-heparinized syringe) via the carotid artery or jugular vein catheter before dosing and at t=5, 15, 30, 60, 120, 180, 360, and 480 minutes post dosing. For some nitrone compounds a 1440 minutes (24 hours) sample was also taken for both IV and PO administrations. About 250 μL of blood was obtained at each time point from the animals. Equal volumes of 0.9% normal saline were replaced to prevent dehydration. The whole blood samples were maintained on ice until centrifugation. Blood samples were then centrifuged at 14,000 rpm for 10 minutes at 4° C. and the upper plasma layer transferred into a clean vial and stored at −80° C. The resulting plasma samples were then analyzed by mass spectroscopy using standard methods.
All the samples from above assays were analyzed on a PE-Sciex API 3000 triple quadrupole with a Turbo Ion Spray source. Nitrone compounds of this invention were separated from the matrix via a linear gradient reverse-phase chromatography using a C18 column, such as Thermo BDS Hypersil C18 (100×4.6 mm, 5 micron particle, 120A pore size). The mobile Phases were:
Nitrone compounds were detected by the mass spectrometer in the positive ion multiple reaction monitoring mode (MRM). For quantitative analysis, a standard curve was prepared by spiking a stock solution of the nitrone compound to the appropriate matrix to achieve a quantitation curve range and analyzed the standards in the same manner as the samples.
Pharmacokinetic parameters of the aryl nitrone compounds were determined by a noncompartmental analysis using WinNonlin-Pro (Version 4.1, Pharsight Corporation). Average and standard deviation of the parameters were calculated using standard formulas in Microsoft Excel.

Compound: CC(C)(C)/[N+]([O-])=C/c1ccc(S(=O)(=O)Nc2ccc(F)cc2)cc1 [Compound 25, N-(tert-Butyl)-C-[4-(4-fluoro-phenylsulfamoyl)phenyl]nitrone]
- EC50 [1]: > 1000 µM
- Cmax [2]: 10 ng/mL
- clearance [2]: 29.3 mL/min/kg
- Vd [2]: 1.12 L/kg
- Tmax [2]: 15 min
- bioavailability [2]: 0.85%
- half-life [2]: 25.8 min

Compound: COC(=O)c1ccccc1/C=[N+](\[O-])Cc1ccccc1 [Compound 3, N-Benzyl-C-[2-(methoxycarbonyl)phenyl]nitrone]
- EC50 [1]: 500 to 1000 µM

Compound: CC(C)(C)/[N+]([O-])=C/c1ccc(S(=O)(=O)N2CCCC2)cc1 [Compound 29, N-(tert-Butyl)-C-[4-(pyrrolidine-1-sulfonyl)phenyl]nitrone]
- EC50 [1]: > 1000 µM
- Cmax [2]: 114 ng/mL
- clearance [2]: 38 mL/min/kg
- Vd [2]: 0.97 L/kg
- Tmax [2]: 11.4 min
- bioavailability [2]: 4.3%
- half-life [2]: 17.4 min

Compound: COC(=O)c1[nH]c2ccccc2c1/C=[N+](\[O-])C1CCCCC1 [Compound 78, N-Cyclohexyl-C-[2-(methoxycarbonyl)-1H-indol-3-yl]nitrone]
- EC50 [1]: > 1000 µM

Compound: CCNS(=O)(=O)c1ccc(/C=[N+](\[O-])C(C)(C)C)cc1 [Compound 24, N-(tert-Butyl)-C-[4-(ethylsulfamoyl)phenyl]nitrone]
- EC50 [1]: > 1000 µM
- Cmax [2]: 198 ng/mL
- clearance [2]: 59 mL/min/kg
- Vd [2]: 2.58 L/kg
- Tmax [2]: 12 min
- bioavailability [2]: 7.19%
- half-life [2]: 31.2 min

Compound: COC(=O)c1ccccc1/C=[N+](\[O-])C1CCCCC1 [Compound 2, N-Cyclohexyl-C-[2-(methoxycarbonyl)phenyl]nitrone]
- EC50 [1]: > 1000 µM

Compound: CC(C)(C)[N+]([O-])=Cc1ccccc1 [PBN, C-(phenyl)-N-(tert-butyl)nitrone, reference compound]
- EC50 [1]: > 1000 µM

Compound: COC(=O)c1ccccc1/C=[N+](\[O-])C(C)(C)C [Compound 1, N-(tert-Butyl)-C[2-(methoxycarbonyl)phenyl]nitrone]
- EC50 [1]: 500 to 1000 µM

Compound: CC(C)(C)/[N+]([O-])=C/c1ccc(S(=O)(=O)N2CCCCC2)cc1 [Compound 28, N-(tert-Butyl)-C-[4-(piperidine-1-sulfonyl)phenyl]nitrone]
- EC50 [1]: > 1000 µM
- Cmax [2]: 134 ng/mL
- clearance [2]: 19 mL/min/kg
- Vd [2]: 19.9 L/kg
- Tmax [2]: 64.8 min
- bioavailability [2]: 13.8%
- half-life [2]: 782 min

Compound: CN1CCN(S(=O)(=O)c2ccc(/C=[N+](\[O-])C(C)(C)C)cc2)CC1 [Compound 22, N-(tert-Butyl)-C-[4-(4-methyl-piperazine-1-sulfonyl)phenyl]nitrone]
- EC50 [1]: > 1000 µM
- Cmax [2]: 703 ng/mL
- clearance [2]: 36.8 mL/min/kg
- Vd [2]: 1.83 L/kg
- Tmax [2]: 14.4 min
- bioavailability [2]: 15.6%
- half-life [2]: 34.2 min

Compound: COC(=O)c1[nH]c2ccccc2c1/C=[N+](\[O-])Cc1ccccc1 [Compound 79, N-Benzyl-C[2-(methoxycarbonyl)-1H-indol-3-yl]nitrone]
- EC50 [1]: > 1000 µM

Compound: CC(C)(C)[N+]([O-])=Cc1ccccc1S(=O)(=O)O [SPBN, C-(2-sulfophenyl)-N-(tert-butyl)nitrone, sodium salt, reference compound]
- EC50 [1]: > 1000 µM

Compound: COC(=O)c1[nH]c2ccccc2c1/C=[N+](\[O-])C(C)(C)C [Compound 77, N-(tert-Butyl)-C-[2-(methoxycarbonyl)-1H-indol-3-yl]nitrone]
- EC50 [1]: > 1000 µM

Compound: 2(3)-tert-butylhydroquinone monomethyl ether [BHA, reference compound]
- EC50 [1]: < 10 µM

Continued, values first:

- EC50 [1]: 100 to 500 µM
Compound: COC(=O)c1c(/C=[N+](\[O-])Cc2ccccc2)cc(OC)cc1OC [Compound 6, N-Benzyl-C-[2-(methoxycarbonyl)-3,5-dimethoxyphenyl]-nitrone]

- EC50 [1]: 500 to 1000 µM
Compound: COc1cc(/C=[N+](\[O-])C(C)(C)C)c(C(=O)O)c(OC)c1 [Compound 10, N-(tert-Butyl)-C-(2-carboxy-3,5-dimethoxyphenyl)nitrone]

- EC50 [1]: 10 to 100 µM
Compound: O=C(O)c1ccccc1/C=[N+](\[O-])Cc1ccccc1 [Compound 9, N-Benzyl-C-(2-carboxyphenyl)nitrone]

- EC50 [1]: 10 to 100 µM
Compound: COc1cc(/C=[N+](\[O-])Cc2ccccc2)c(C(=O)O)c(OC)c1 [Compound 12, N-Benzyl-C-(2-carboxy-3,5-dimethoxyphenyl)nitrone]

- EC50 [1]: 100 to 500 µM
Compound: CC(C)(C)/[N+]([O-])=C/c1ccccc1C(=O)O [Compound 7, N-(tert-Butyl)-C-(2-carboxyphenyl)nitrone]

- EC50 [1]: 10 to 100 µM
Compound: COc1cc(/C=[N+](\[O-])C2CCCCC2)c(C(=O)O)c(OC)c1 [Compound 11, N-Cyclohexyl-C-(2-carboxy-3,5-dimethoxyphenyl)nitrone]

- EC50 [1]: < 10 µM
Compound: Cc1c(C)c2c(c(C)c1O)CCC(C)(C(=O)O)O2 (stereo not shown) [Trolox, 6-hydroxy-2,5,7,8-tetramethylchromane-2-carboxylic acid, reference compound]

- EC50 [1]: 100 to 500 µM
Compound: COC(=O)c1c(/C=[N+](\[O-])C2CCCCC2)cc(OC)cc1OC [Compound 5, N-Cyclohexyl-C-[2-(methoxycarbonyl)-3,5-dimethoxyphenyl]-nitrone]

- EC50 [1]: 100 to 500 µM
Compound: CN(C)C(=O)c1ccccc1/C=[N+](\[O-])C(C)(C)C [Compound 16, N-(tert-Butyl)-C-[2-(N,N-dimethylcarbamoyl)phenyl]nitrone]

- EC50 [1]: 100 to 500 µM
Compound: COC(=O)c1c(/C=[N+](\[O-])C(C)(C)C)cc(OC)cc1OC [Compound 4, N-(tert-Butyl)-C-[2-(methoxycarbonyl)-3,5-dimethoxyphenyl]-nitrone]

- EC50 [1]: 10 to 100 µM
Compound: O=C(O)c1ccccc1/C=[N+](\[O-])C1CCCCC1 [Compound 8, N-Cyclohexyl-C-(2-carboxyphenyl)nitrone]
